Test results published in US9321776B2, “Isochromene derivatives as phoshoinositide 3-kinases inhibitors” (CHIESI FARMACEUTICI S.p.A., priority 2013, dated 2016).
Counter-ions that a name gives are not always drawn.

Legend:
Test in all cases: PI3K enzyme inhibitory activity in the cell free assay (ADP-Glo Kinase Assay)
Assay type in all cases: biochemical
PI3Kα = molecular target: T1, PI3Kα (Homo sapiens, UniProt P42336); conditions: human recombinant PI3Kα, ATP 50 μM; read-out: PI3K alpha inhibition
T1 construct: purchased Millipore Ltd (Billerica, Mass.)
T1 sequence (P42336 whole entry): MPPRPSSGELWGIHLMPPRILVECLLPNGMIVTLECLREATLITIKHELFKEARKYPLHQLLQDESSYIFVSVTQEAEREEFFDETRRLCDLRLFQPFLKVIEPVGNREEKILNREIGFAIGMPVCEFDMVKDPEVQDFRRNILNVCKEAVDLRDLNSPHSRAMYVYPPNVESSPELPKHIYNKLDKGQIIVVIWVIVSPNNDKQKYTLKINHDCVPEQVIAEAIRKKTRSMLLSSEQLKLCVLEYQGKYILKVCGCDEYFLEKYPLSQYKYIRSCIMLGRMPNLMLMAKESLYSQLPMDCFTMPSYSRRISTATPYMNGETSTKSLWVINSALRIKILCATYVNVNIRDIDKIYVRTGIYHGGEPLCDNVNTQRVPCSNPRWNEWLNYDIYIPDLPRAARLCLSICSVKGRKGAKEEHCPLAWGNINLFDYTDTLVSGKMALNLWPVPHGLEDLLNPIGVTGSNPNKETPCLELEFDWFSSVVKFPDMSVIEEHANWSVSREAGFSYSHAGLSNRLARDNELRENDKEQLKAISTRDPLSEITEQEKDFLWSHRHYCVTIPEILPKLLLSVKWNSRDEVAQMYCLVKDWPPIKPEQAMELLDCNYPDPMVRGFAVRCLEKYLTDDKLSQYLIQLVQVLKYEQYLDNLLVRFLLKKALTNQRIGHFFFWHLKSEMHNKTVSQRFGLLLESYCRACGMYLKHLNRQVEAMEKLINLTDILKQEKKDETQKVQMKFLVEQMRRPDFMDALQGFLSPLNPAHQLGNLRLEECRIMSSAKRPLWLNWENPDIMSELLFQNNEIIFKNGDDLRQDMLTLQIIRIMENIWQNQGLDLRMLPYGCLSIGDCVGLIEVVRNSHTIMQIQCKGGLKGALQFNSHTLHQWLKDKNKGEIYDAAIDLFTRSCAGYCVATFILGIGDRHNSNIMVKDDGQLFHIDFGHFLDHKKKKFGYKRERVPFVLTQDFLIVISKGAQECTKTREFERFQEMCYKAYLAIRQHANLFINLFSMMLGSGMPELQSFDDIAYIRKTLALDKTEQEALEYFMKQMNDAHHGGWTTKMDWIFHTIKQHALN

PI3Kβ = molecular target: T2, PI3Kβ (Homo sapiens, UniProt P42338); conditions: human recombinant PI3Kβ, ATP 100 μM; read-out: PI3K beta inhibition
T2 construct: purchased Millipore Ltd (Billerica, Mass.)
T2 sequence (P42338 whole entry): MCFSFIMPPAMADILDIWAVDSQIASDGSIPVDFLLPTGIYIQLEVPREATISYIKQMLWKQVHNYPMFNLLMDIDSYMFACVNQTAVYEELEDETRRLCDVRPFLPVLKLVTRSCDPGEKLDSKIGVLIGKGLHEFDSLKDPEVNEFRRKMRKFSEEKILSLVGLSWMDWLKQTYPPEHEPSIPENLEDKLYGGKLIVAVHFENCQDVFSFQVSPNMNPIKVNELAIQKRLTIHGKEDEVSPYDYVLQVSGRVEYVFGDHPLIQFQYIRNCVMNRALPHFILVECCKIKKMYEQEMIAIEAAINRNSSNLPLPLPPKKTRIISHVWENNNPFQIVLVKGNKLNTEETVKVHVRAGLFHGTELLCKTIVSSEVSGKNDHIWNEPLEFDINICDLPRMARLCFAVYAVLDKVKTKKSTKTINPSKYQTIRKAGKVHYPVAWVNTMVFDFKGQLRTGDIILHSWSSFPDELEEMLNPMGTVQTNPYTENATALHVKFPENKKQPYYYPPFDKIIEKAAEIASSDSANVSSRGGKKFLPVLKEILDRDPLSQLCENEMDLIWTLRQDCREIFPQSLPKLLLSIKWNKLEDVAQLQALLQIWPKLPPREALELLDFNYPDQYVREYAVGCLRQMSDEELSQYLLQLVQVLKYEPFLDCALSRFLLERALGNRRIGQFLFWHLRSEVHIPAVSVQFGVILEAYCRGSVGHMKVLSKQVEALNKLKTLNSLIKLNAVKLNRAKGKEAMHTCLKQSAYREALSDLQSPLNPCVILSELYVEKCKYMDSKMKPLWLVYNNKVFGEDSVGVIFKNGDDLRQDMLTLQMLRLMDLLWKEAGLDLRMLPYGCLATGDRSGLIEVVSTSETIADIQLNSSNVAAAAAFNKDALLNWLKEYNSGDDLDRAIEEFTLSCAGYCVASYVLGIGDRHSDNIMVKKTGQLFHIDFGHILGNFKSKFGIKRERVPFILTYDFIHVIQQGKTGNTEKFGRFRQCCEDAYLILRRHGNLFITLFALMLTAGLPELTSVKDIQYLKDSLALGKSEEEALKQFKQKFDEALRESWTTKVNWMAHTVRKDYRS

PI3Kδ = molecular target: T3, PI3Kδ (Homo sapiens, UniProt O00329); conditions: human recombinant PI3Kδ, ATP 80 μM; read-out: PI3K delta inhibition
T3 construct: purchased Millipore Ltd (Billerica, Mass.)
T3 sequence (O00329 1-1044): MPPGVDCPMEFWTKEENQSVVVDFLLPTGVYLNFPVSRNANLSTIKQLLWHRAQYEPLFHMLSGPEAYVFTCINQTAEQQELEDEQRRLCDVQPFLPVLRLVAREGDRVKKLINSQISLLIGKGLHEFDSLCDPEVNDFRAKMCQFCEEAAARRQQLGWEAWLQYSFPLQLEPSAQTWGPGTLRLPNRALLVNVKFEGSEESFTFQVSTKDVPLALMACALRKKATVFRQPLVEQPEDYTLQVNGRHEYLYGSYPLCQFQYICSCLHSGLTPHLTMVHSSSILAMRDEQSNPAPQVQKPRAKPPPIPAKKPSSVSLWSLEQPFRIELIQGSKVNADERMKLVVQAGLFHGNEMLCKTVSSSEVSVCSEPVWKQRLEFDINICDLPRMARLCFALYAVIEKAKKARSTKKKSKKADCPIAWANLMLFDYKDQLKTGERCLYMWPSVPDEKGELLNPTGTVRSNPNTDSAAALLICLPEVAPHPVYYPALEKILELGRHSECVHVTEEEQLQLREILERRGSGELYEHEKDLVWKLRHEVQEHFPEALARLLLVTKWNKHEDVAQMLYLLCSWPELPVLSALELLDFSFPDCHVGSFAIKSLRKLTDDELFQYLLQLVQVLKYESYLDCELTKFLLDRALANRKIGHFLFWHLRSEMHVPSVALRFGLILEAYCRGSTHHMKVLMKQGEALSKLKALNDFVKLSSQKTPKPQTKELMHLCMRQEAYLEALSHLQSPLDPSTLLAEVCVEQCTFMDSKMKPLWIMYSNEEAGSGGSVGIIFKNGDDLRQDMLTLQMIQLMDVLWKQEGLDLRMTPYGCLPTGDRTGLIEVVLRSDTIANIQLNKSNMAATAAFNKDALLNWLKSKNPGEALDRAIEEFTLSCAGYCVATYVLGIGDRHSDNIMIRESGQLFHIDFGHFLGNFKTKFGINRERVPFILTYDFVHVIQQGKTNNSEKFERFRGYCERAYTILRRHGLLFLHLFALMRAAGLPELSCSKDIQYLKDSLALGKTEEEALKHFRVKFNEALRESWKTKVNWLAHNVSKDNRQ

PI3Kγ = molecular target: T4, PI3Kγ (Homo sapiens, UniProt P48736); conditions: human recombinant PI3Kγ, ATP 30 μM; read-out: PI3K gamma inhibition
T4 construct: purchased Millipore Ltd (Billerica, Mass.)
T4 sequence (P48736 whole entry): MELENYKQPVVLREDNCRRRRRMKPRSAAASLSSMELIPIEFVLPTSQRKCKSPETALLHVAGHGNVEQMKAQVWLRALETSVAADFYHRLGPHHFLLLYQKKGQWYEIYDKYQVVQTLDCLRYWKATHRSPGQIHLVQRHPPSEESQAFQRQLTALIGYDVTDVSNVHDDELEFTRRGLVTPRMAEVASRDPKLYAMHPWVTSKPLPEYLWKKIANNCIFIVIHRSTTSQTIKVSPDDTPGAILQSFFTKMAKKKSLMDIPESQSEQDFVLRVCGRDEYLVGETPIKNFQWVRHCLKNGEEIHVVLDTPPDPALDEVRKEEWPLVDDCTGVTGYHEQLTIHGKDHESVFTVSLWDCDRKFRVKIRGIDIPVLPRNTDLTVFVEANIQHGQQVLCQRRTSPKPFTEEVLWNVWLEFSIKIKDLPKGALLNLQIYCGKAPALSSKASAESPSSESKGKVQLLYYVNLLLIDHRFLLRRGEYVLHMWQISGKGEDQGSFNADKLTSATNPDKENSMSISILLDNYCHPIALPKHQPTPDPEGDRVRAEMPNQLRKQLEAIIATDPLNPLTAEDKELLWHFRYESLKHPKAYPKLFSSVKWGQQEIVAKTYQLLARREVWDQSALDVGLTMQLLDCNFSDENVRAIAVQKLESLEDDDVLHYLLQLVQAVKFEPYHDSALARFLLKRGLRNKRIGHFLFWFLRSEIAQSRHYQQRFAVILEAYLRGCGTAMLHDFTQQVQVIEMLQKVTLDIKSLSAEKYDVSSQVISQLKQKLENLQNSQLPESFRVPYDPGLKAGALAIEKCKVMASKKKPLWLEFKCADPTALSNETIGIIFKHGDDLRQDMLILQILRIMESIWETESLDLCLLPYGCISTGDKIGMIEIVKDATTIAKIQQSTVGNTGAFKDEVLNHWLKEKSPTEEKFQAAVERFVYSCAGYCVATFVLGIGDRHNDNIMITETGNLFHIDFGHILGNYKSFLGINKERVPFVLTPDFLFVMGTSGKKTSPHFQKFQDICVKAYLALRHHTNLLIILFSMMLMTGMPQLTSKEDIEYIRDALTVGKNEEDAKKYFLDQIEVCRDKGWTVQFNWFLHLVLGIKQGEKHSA

| IC50 (PI3Kα) | IC50 (PI3Kβ) | IC50 (PI3Kδ) | IC50 (PI3Kγ) | SMILES |
| --- | --- | --- | --- | --- |
| > 1000 nM | 10 to 1000 nM | < 10 nM | > 1000 nM | CC(c1oc(=O)c2ccccc2c1C1=CCNCC1)n1nc(-c2cc(O)cc(C(F)(F)F)c2)c2c(N)ncnc21 (stereo not shown) [Example 153, 3-(1-(4-amino-3-(3-hydroxy-5-(trifluoromethyl)phenyl)-1H-pyrazolo[3,4-d]pyrimidin-1-yl)ethyl)-4-(1,2,3,6-tetrahydropyridin-4-yl)-1H-isochromen-1-one formate] |
| > 1000 nM | 10 to 1000 nM | < 10 nM | > 1000 nM | CC(c1oc(=O)c2ccccc2c1C1=CCN(C)CC1)n1nc(-c2cc(O)cc(Cl)c2)c2c(N)ncnc21 (stereo not shown) [Example 154, 3-(1-(4-amino-3-(3-chloro-5-hydroxyphenyl)-1H-pyrazolo[3,4-d]pyrimidin-1-yl)ethyl)-4-(1-methyl-1,2,3,6-tetrahydropyridin-4-yl)-1H-isochromen-1-one formate] |
| > 1000 nM | 10 to 1000 nM | 10 to 1000 nM | > 1000 nM | CC(c1oc(=O)c2ccccc2c1C1=CCN(C)CC1)n1nc(-c2cc(O)cc(C(F)(F)F)c2)c2c(N)ncnc21 (stereo not shown) [Example 155, 3-(1-(4-amino-3-(3-hydroxy-5-(trifluoromethyl)phenyl)-1H-pyrazolo[3,4-d]pyrimidin-1-yl)ethyl)-4-(1-methyl-1,2,3,6-tetrahydropyridin-4-yl)-1H-isochromen-1-one formate] |
| > 1000 nM | 10 to 1000 nM | < 10 nM | 10 to 1000 nM | CC(c1oc(=O)c2ccccc2c1C1=CCN(C2CNC2)CC1)n1nc(-c2cc(O)cc(F)c2)c2c(N)ncnc21 (stereo not shown) [Example 156, 3-(1-(4-amino-3-(3-fluoro-5-hydroxyphenyl)-1H-pyrazolo[3,4-d]pyrimidin-1-yl)ethyl)-4-(1-(azetidin-3-yl)-1,2,3,6-tetrahydropyridin-4-yl)-1H-isochromen-1-one dihydrochloride] |
| > 1000 nM | 10 to 1000 nM | < 10 nM | 10 to 1000 nM | CC(c1oc(=O)c2ccccc2c1C1=CCN(C2CN(CC3CC3)C2)CC1)n1nc(-c2cc(O)cc(F)c2)c2c(N)ncnc21 (stereo not shown) [Example 157, 3-(1-(4-amino-3-(3-fluoro-5-hydroxyphenyl)-1H-pyrazolo[3,4-d]pyrimidin-1-yl)ethyl)-4-(1-(1-(cyclopropylmethyl)azetidin-3-yl)-1,2,3,6-tetrahydropyridin-4-yl)-1H-isochromen-1-one dihydrochloride] |
| > 1000 nM | > 1000 nM | < 10 nM | > 1000 nM | CC(c1oc(=O)c2ccccc2c1-c1ccccc1)n1nc(-c2cnc(C(F)(F)F)c(O)c2)c2c(N)ncnc21 (stereo not shown) [Example 161, 3-(1-(4-amino-3-(5-hydroxy-6-(trifluoromethyl)pyridin-3-yl)-1H-pyrazolo[3,4-d]pyrimidin-1-yl)ethyl)-4-phenyl-1H-isochromen-1-one] |
| > 1000 nM | 10 to 1000 nM | < 10 nM | 10 to 1000 nM | CC(c1oc(=O)c2ccc(Cl)cc2c1-c1ccccc1)n1nc(-c2cc(O)cc(F)c2)c2c(N)ncnc21 (stereo not shown) [Example 164, 3-(1-(4-amino-3-(3-fluoro-5-hydroxyphenyl)-1H-pyrazolo[3,4-d]pyrimidin-1-yl)ethyl)-6-chloro-4-phenyl-1H-isochromen-1-one] |
| > 1000 nM | 10 to 1000 nM | < 10 nM | 10 to 1000 nM | CC(c1oc(=O)c2ccc(F)cc2c1-c1ccccc1)n1nc(-c2cc(O)cc(F)c2)c2c(N)ncnc21 (stereo not shown) [Example 165, 3-(1-(4-amino-3-(3-fluoro-5-hydroxyphenyl)-1H-pyrazolo[3,4-d]pyrimidin-1-yl)ethyl)-6-fluoro-4-phenyl-1H-isochromen-1-one] |
| > 1000 nM | 10 to 1000 nM | < 10 nM | 10 to 1000 nM | CC(c1oc(=O)c2ccccc2c1C1=CCCN(Cc2ccccc2)C1)n1nc(-c2cc(O)cc(F)c2)c2c(N)ncnc21 (stereo not shown) [Example 169, 3-(1-(4-amino-3-(3-fluoro-5-hydroxyphenyl)-1H-pyrazolo[3,4-d]pyrimidin-1-yl)ethyl)-4-(1-benzyl-1,2,5,6-tetrahydropyridin-3-yl)-1H-isochromen-1-one hydrochloride] |
| 10 to 1000 nM | 10 to 1000 nM | < 10 nM | 10 to 1000 nM | CC(c1oc(=O)c2ccccc2c1-c1ccccn1)n1nc(-c2cc(O)cc(F)c2)c2c(N)ncnc21 (stereo not shown) [Example 170, 3-(1-(4-amino-3-(3-fluoro-5-hydroxyphenyl)-1H-pyrazolo[3,4-d]pyrimidin-1-yl)ethyl)-4-(pyridin-2-yl)-1H-isochromen-1-one hydrochloride] |
| 10 to 1000 nM | 10 to 1000 nM | 10 to 1000 nM | 10 to 1000 nM | CC(c1oc(=O)c2ccccc2c1C1=CCCN(C2CCN(C)CC2)C1)n1nc(-c2cc(O)cc(F)c2)c2c(N)ncnc21 (stereo not shown) [Example 172, 3-(1-(4-amino-3-(3-fluoro-5-hydroxyphenyl)-1H-pyrazolo[3,4-d]pyrimidin-1-yl)ethyl)-4-(1-(1-methylpiperidin-4-yl)-1,2,5,6-tetrahydropyridin-3-yl)-1H-isochromen-1-one dihydrochloride] |
| 10 to 1000 nM | 10 to 1000 nM | < 10 nM | 10 to 1000 nM | CC(c1oc(=O)c2ccccc2c1C1=CCCN(C2CNC2)C1)n1nc(-c2cc(O)cc(F)c2)c2c(N)ncnc21 (stereo not shown) [Example 173, 3-(1-(4-amino-3-(3-fluoro-5-hydroxyphenyl)-1H-pyrazolo[3,4-d]pyrimidin-1-yl)ethyl)-4-(1-(azetidin-3-yl)-1,2,5,6-tetrahydropyridin-3-yl)-1H-isochromen-1-one dihydrochloride] |
| 10 to 1000 nM | 10 to 1000 nM | 10 to 1000 nM | 10 to 1000 nM | CC(C)N1CCC=C(c2c(C(C)n3nc(-c4cc(O)cc(F)c4)c4c(N)ncnc43)oc(=O)c3ccccc23)C1 (stereo not shown) [Example 174, 3-(1-(4-amino-3-(3-fluoro-5-hydroxyphenyl)-1H-pyrazolo[3,4-d]pyrimidin-1-yl)ethyl)-4-(1-isopropyl-1,2,5,6-tetrahydropyridin-3-yl)-1H-isochromen-1-one hydrochloride] |
| 10 to 1000 nM | < 10 nM | < 10 nM | 10 to 1000 nM | CC(c1oc(=O)c2ccccc2c1C1=CCN(C)CC1)n1nc(-c2cncc(O)c2)c2c(N)ncnc21 (stereo not shown) [Example 175, 3-(1-(4-amino-3-(5-hydroxypyridin-3-yl)-1H-pyrazolo[3,4-d]pyrimidin-1-yl)ethyl)-4-(1-methyl-1,2,3,6-tetrahydropyridin-4-yl)-1H-isochromen-1-one hydrochloride] |
| > 1000 nM | 10 to 1000 nM | < 10 nM | 10 to 1000 nM | CC(c1oc(=O)c2ccccc2c1-c1ccccc1)n1nc(I)c2c(N)ncnc21 (stereo not shown) [Int D2, 3-(1-(4-Amino-3-iodo-1H-pyrazolo[3,4-d]pyrimidin-1-yl)ethyl)-4-phenyl-1H-isochromen-1-one] |
| > 1000 nM | > 1000 nM | < 10 nM | 10 to 1000 nM | Cc1cccc(-c2c(C(C)n3nc(I)c4c(N)ncnc43)oc(=O)c3ccccc23)c1 (stereo not shown) [Int D3, 3-(1-(4-Amino-3-iodo-1H-pyrazolo[3,4-d]pyrimidin-1-yl)ethyl)-4-m-tolyl-1H-isochromen-1-one] |
